According to patent US20090297510A1, “INHIBITION OF CALPAIN REDUCES ALLERGIC INFLAMMATION” (priority 2008, published 2009):

Experiments:
Balb/c mice = test: FcεRI-mediated passive cutaneous anaphylaxis, Evans blue dye extravasation in ear; type: in vivo; conditions: 0.965 mg/mouse intraperitoneal, 1 h before DNP-BSA challenge i.v.; ears collected 30 min later; control DMSO; FIG. 2
Procedure: In particular, mice were injected locally in the ear tissue with anti-dinitrophenol (DNP) IgE (20 ng/mouse) a day before. Mice in the treatment group received 0.965 mg/mouse of calpain inhibitor III via intraperitoneal injection. Control group received diluent dimethyl sulfoxide (DMSO) only. One hour later, animals were injected with 100 μg of DNP-BSA in 200 μl 0.5% Evan blue dye via tail vein injection. Thirty minutes later, ear tissues were collected. Evan blue dyes were extracted and measure at 620 nm.
To examine the role of calpain in FcεRI-mediated passive cutaneous anaphylaxis in mice, dorsal sides of the ears of Balb/c mice were injected intradermally with 20 ng anti-DNP IgE (both left ears) in a 20 μl volume using a 30-gauge needle. After 24 h mice in the treatment group received 0.965 mg/mouse of calpain inhibitor III via intraperitoneal injection. Control group received diluent dimethyl sulfoxide (DMSO) only. […] For quantitation of Evans blue dye extravasation as a measure of anaphylaxis associated vascular hyperpermeability, 8-mm skin specimens were removed from the ears of mice, minced in 2 ml formamide, and incubated at 80° C. for 2 h in water bath to extract the dye. The absorbance of the extracted dye was read at 620 nm.

[1] = system: JNK phosphorylation in mast cells; test: Western blot of IgE-dependent kinase phosphorylation in mast cell lysates; type: cell-based, mouse; conditions: BMMC, inhibitor or DMSO 1 hour, then TNP-BSA 10 ng/ml for various times, FIG. 4
Procedure: In particular, mouse bone marrow-derived mast cells (60 million) were sensitized overnight with 90 ml fresh culture medium and 30 ml TIB141-conditioned medium enriched in IgE directed against trinitrophenyl (TNP). Cells were then washed twice with RPMI 1640 and resuspended in 10% FBS-RPMI 1640 at 1 million cells/ml. Five ml of cells were aliquoted for each treatment. Calpain inhibitor 3 (CI3) or DMSO was added and to the sample and incubated at 37° C. in a 5% CO2 incubator for 1 hour. Then, TNP-BSA (10 ng/ml) was added to stimulate mast cells for various times as indicated. After incubation, cells were transferred to a 50 ml tube, and centrifuged at 500×g for 5 min at 4° C. Supernatants were discarded and cell pellets were kept on ice. Cell pellets were lysed with 30 μl ice-cold RIPA lysis buffer for each condition. Lysates were transferred to 1.5 ml tubes, vortexed for 10 seconds at the highest setting, pipetted 20 times, vortexed for 10 seconds again, and incubated for 20 minutes on ice. Subsequently, lysates were centrifuged at 15,000×g for 10 minutes in a cold room. Supernatants were then transferred to new tubes and used for Western blotting with antibodies to phospho-IκB, total IκB, phospho-p38, total p38, phospho-JNK, total JNK, phospho-ERK, total ERK and actin. […]

## calpain inhibitor III
Balb/c mice
  IgE-dependent passive cutaneous anaphylaxis (Evans blue dye extravasation, absorbance at 620 nm): reduced IgE-dependent passive cutaneous anaphylaxis
[1]
  IgE-dependent JNK phosphorylation in mast cells: reduced IgE-dependent JNK phosphorylation in mast cells
